Laboratory results as given in patent publication US8685977B2, “Chemical compounds” (Pfizer Limited, priority 2010, dated 2014).

biological target: T1, Nav1.7 (or SCN9A) channel (Homo sapiens, UniProt Q15858); assay: Nav1.7 PatchXpress 7000 automated electrophysiology assay (HEK cells stably expressing hSCN9A); type: cell-based; conditions: voltage-clamped at V1/2 of inactivation, read-out: Nav1.7 EIC50
T1 construct: expressed in transfected cells
How it was run: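 Automated whole-cell clamp (PatchXpress) of HEK cells stably expressing hSCN9A, at 22-24 °C, in extracellular buffer at pH 7.4. Cells were held at the measured V1/2 of inactivation, then stepped to 0 mV for 20 ms. Single-concentration % inhibition gave EIC50 = concentration × (100 − %inhibition)/%inhibition, excluding <20% or >80%.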

T1 sequence (Q15858 whole entry): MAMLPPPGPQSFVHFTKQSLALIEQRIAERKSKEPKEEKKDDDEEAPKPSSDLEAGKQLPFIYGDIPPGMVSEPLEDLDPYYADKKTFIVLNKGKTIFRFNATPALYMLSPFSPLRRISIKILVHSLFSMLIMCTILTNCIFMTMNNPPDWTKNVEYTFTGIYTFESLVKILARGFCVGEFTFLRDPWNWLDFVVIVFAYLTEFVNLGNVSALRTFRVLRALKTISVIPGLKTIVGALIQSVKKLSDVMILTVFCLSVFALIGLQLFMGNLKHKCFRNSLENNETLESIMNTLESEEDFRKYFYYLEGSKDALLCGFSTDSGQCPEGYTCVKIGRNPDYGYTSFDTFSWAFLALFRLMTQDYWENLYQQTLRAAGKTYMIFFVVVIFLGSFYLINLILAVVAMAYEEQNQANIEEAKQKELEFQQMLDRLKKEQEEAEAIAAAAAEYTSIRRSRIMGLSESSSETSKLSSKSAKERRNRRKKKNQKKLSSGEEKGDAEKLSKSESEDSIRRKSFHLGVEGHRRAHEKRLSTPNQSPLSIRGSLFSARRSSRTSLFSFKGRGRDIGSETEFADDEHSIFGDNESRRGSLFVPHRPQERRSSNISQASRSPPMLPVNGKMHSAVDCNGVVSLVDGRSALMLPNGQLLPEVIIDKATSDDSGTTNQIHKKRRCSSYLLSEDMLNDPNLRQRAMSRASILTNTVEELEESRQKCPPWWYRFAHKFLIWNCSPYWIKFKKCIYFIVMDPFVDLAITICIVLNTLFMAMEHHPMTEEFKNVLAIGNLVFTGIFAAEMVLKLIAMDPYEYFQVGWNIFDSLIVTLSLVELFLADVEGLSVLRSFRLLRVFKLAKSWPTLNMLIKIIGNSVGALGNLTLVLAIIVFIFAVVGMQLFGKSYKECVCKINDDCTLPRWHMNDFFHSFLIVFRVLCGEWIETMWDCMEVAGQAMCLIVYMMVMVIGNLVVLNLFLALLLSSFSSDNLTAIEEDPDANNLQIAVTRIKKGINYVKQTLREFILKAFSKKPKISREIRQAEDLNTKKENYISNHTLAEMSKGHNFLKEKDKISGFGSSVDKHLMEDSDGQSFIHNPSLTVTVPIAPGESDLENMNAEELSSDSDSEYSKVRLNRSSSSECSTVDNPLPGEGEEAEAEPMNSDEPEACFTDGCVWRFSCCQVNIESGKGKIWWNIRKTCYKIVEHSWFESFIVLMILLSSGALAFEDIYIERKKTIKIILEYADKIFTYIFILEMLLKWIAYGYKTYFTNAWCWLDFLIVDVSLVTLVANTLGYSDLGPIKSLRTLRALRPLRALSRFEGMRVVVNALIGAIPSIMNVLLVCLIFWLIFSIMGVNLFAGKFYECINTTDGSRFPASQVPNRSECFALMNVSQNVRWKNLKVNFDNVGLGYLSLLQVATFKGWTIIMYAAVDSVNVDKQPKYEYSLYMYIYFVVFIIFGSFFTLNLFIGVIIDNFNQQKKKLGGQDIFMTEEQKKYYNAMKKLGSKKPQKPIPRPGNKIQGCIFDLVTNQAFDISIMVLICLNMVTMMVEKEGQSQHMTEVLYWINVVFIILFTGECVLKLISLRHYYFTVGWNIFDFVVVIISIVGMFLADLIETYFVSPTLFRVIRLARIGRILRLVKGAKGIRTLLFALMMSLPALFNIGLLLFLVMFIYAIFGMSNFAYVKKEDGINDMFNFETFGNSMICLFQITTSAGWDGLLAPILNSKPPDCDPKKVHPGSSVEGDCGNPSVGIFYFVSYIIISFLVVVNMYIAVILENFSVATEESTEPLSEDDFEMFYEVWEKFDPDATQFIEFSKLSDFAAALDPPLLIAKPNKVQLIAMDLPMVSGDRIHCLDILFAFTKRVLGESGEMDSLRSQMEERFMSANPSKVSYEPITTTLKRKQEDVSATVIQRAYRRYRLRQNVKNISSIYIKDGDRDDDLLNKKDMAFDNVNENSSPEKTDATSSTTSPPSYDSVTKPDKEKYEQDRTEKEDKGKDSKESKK

| IC50 [µM] | Structure (SMILES) |
| --- | --- |
| 8.6 | CS(=O)(=O)NC(=O)c1ccc(Oc2cccc3ccccc23)c(C#N)c1 [Example 283, 3-cyano-N-(methylsulfonyl)-4-(1-naphthyloxy)benzamide] |
| 8.7 | CS(=O)(=O)NC(=O)c1ccc(Oc2cccc(F)c2)c(C#N)c1 [Example 284, 3-cyano-4-(3-fluorophenoxy)-N-(methylsulfonyl)benzamide] |
| 0.057 | CS(=O)(=O)NC(=O)c1cc(Cl)c(Oc2ccc3ccccc3c2)cc1F [Example 285, 5-chloro-2-fluoro-N-(methylsulfonyl)-4-(2-naphthyloxy)benzamide] |
| 3.4 | CS(=O)(=O)NC(=O)c1cc(Cl)c(Oc2ccc(C#N)cc2)cc1F [Example 286, 5-chloro-4-(4-cyanophenoxy)-2-fluoro-N-(methylsulfonyl)benzamide] |
| 2.1 | CS(=O)(=O)NC(=O)c1cc(Cl)c(Oc2cccc3ccccc23)cc1F [Example 287, 5-chloro-2-fluoro-N-(methylsulfonyl)-4-(1-naphthyloxy)benzamide] |
| 2 | CCOc1ccccc1Oc1cc(F)c(C(=O)NS(C)(=O)=O)cc1Cl [Example 288, 5-chloro-4-(2-ethoxyphenoxy)-2-fluoro-N-(methylsulfonyl)benzamide] |
| 1.2 | COc1cccc(Oc2cc(F)c(C(=O)NS(C)(=O)=O)cc2Cl)c1 [Example 289, 5-chloro-2-fluoro-4-(3-methoxyphenoxy)-N-(methylsulfonyl)benzamide] |
| 0.42 | Cc1ccc(Oc2cc(F)c(C(=O)NS(C)(=O)=O)cc2Cl)cc1 [Example 291, 5-chloro-2-fluoro-4-(4-methylphenoxy)-N-(methylsulfonyl)benzamide] |
| 0.62 | CS(=O)(=O)NC(=O)c1cc(Cl)c(Oc2cccc(Cl)c2)cc1F [Example 292, 5-chloro-4-(3-chlorophenoxy)-2-fluoro-N-(methylsulfonyl)benzamide] |
| > 3 | CS(=O)(=O)NC(=O)c1cc(Cl)c(Oc2ccccc2C#N)cc1F [Example 293, 5-chloro-4-(2-cyanophenoxy)-2-fluoro-N-(methylsulfonyl)benzamide] |
| 0.16 | CCOc1ccc(Oc2cc(F)c(C(=O)NS(C)(=O)=O)cc2Cl)cc1 [Example 294, 5-chloro-4-(4-ethoxyphenoxy)-2-fluoro-N-(methylsulfonyl)benzamide] |
| 0.097 | CS(=O)(=O)NC(=O)c1cc(Cl)c(Oc2ccc(Cl)cc2)cc1F [Example 295, 5-chloro-4-(4-chlorophenoxy)-2-fluoro-N-(methylsulfonyl)benzamide] |
| 0.39 | CS(=O)(=O)NC(=O)c1cc(Cl)c(Oc2ccc(F)cc2)cc1F [Example 296, 5-chloro-2-fluoro-4-(4-fluorophenoxy)-N-(methylsulfonyl)benzamide] |
| 2.3 | Cc1ccccc1Oc1cc(F)c(C(=O)NS(C)(=O)=O)cc1Cl [Example 297, 5-chloro-2-fluoro-4-(2-methylphenoxy)-N-(methylsulfonyl)benzamide] |
| 0.2 | CCOc1cccc(Oc2cc(F)c(C(=O)NS(C)(=O)=O)cc2Cl)c1 [Example 298, 5-chloro-4-(3-ethoxyphenoxy)-2-fluoro-N-(methylsulfonyl)benzamide] |
| > 3 | Cn1nccc1-c1cc(Cl)ccc1Oc1ccc(C(=O)NS(C)(=O)=O)cc1C#N [Example 303, 4-[4-chloro-2-(1-methyl-1H-pyrazol-5-yl)phenoxy]-3-cyano-N-(methylsulfonyl)benzamide] |
| 8.7 | Cc1ccc(Oc2ccc(C(=O)NS(C)(=O)=O)cc2)cc1 [Example 304, 4-(4-methylphenoxy)-N-(methylsulfonyl)benzamide] |
| 6.4 | CCS(=O)(=O)NC(=O)c1ccc(Oc2ccc(F)cc2)cc1 [Example 305, N-(ethylsulfonyl)-4-(4-fluorophenoxy)benzamide] |
| 25 | CCS(=O)(=O)NC(=O)c1ccc(Oc2cccc(F)c2)cc1 [Example 306, N-(ethylsulfonyl)-4-(3-fluorophenoxy)benzamide] |

| IC50 [µM] | Structure (SMILES) |
| --- | --- |
| 9.7 | CCS(=O)(=O)NC(=O)c1ccc(Oc2ccccc2)cc1 [Example 307, N-(ethylsulfonyl)-4-phenoxybenzamide] |
| > 10 | CCS(=O)(=O)NC(=O)c1ccc(Oc2ccc(C)cc2)cc1 [Example 308, N-(ethylsulfonyl)-4-(4-methylphenoxy)benzamide] |
| 18 | CS(=O)(=O)NC(=O)c1ccc(Oc2ccc(F)cc2)cc1 [Example 309, 4-(4-fluorophenoxy)-N-(methylsulfonyl)benzamide] |
| 3.3 | CS(=O)(=O)NC(=O)c1ccc(Oc2ccc(C#N)c(C(F)(F)F)c2)cc1 [Example 310, 4-[4-cyano-3-(trifluoromethyl)phenoxy]-N-(methylsulfonyl)benzamide] |
| > 3 | CS(=O)(=O)NC(=O)c1ccc(Oc2ccc(-n3ccnc3)cc2)cc1 [Example 311, 4-[4-(1H-imidazol-1-yl)phenoxy]-N-(methylsulfonyl)benzamide] |
| 3.3 | Cn1nc(C(F)(F)F)cc1-c1ccc(Oc2ccc(C(=O)NS(C)(=O)=O)cc2)cc1 [Example 312, N-(methylsulfonyl)-4-{4-[1-methyl-3-(trifluoromethyl)-1H-pyrazol-5-yl]phenoxy}benzamide] |
| 9.9 | CS(=O)(=O)NC(=O)c1cc(Cl)c(Oc2ccc(C(F)(F)F)cc2-c2ccnnc2)cc1F [Example 313, 5-chloro-2-fluoro-N-(methylsulfonyl)-4-[2-pyridazin-4-yl-4-(trifluoromethyl)phenoxy]benzamide] |
| 1.1 | COc1ccc(OC(F)(F)F)cc1Oc1cc(F)c(C(=O)NS(C)(=O)=O)cc1F [Example 314, 2,5-difluoro-4-[2-methoxy-5-(trifluoromethoxy)phenoxy]-N-(methylsulfonyl)benzamide] |
| 1.5 | CS(=O)(=O)NC(=O)c1ccc(Cc2ccc(Cl)c(Cl)c2)cc1 [Example 315, 4-(3,4-Dichlorobenzyl)-N-(methylsulfonyl)benzamide] |
| 1.6 | CS(=O)(=O)NC(=O)c1ccc(Cc2cccc(OC(F)(F)F)c2)cc1 [Example 316, N-(Methylsulfonyl-1)-4-[3-(trifluoromethoxy)benzyl]benzamide] |
| 3.5 | CS(=O)(=O)NC(=O)c1ccc(Sc2ccc(Cl)c(Cl)c2)cc1 [Example 317, 4-[(3,4-Dichlorophenyl)sulfanyl]-N-(methylsulfonyl)benzamide] |
| 5.6 | CS(=O)(=O)NC(=O)c1ccc(Sc2cccc(OC(F)(F)F)c2)cc1 [Example 318, N-(Methylsulfonyl)-4-{[3-(trifluoromethoxy)phenyl]sulfanyl}benzamide] |
| 2.5 | COc1cc(Cl)ccc1Cc1cc(F)c(C(=O)NS(C)(=O)=O)cc1F [Example 319, 4-(4-Chloro-2-methoxybenzyl)-2,5-difluoro-N-(methylsulfonyl)benzamide] |
| 1.8 | CS(=O)(=O)NC(=O)c1ccc(Oc2ccc(Cl)c(C(F)(F)F)c2)c(Cl)c1F [Example 320, 3-chloro-4-(4-chloro-3-(trifluoromethyl)phenoxy)-2-fluoro-N-(methylsulfonyl)benzamide] |
| 0.32 | CS(=O)(=O)NC(=O)c1ccc(Nc2cccc(C(F)(F)F)c2)cc1 [Example 321, N-(methylsulfonyl)-4-(3-(trifluoromethyl)phenylamino)benzamide] |
| > 3 | COc1cc(C(=O)NS(C)(=O)=O)ccc1Cc1ccc(Cl)c(Cl)c1 [Example 322, 4-(3,4-dichlorobenzyl)-3-methoxy-N-(methylsulfonyl)benzamide] |
| 36 | CS(=O)(=O)NC(=O)c1ccc(Sc2ccccc2Cl)cc1 [Example 323, 4-(2-chlorophenylthio)-N-(methylsulfonyl)benzamide] |
| > 3 | COc1ccccc1Sc1ccc(C(=O)NS(C)(=O)=O)cc1 [Example 324, 4-(2-methoxyphenylthio)-N-(methylsulfonyl)benzamide] |
| 4.1 | COc1cc(Oc2ccc(Cl)c(C(F)(F)F)c2)ccc1C(=O)NS(C)(=O)=O [Example 326, 4-(4-chloro-3-(trifluoromethyl)phenoxy)-2-methoxy-N-(methylsulfonyl)benzamide] |

biological target: T1, Nav1.7 (or SCN9A) channel; assay: Nav1.7 Ionworks Quattro automated electrophysiology assay (HEK cells expressing hSCN9A); type: cell-based; conditions: Ionworks assay (IW), read-out: Nav1.7 EIC50 (IW)
Procedure: The ability of the compounds of formula (I) to block the Nav1.7 (or SCN9A) channel was measured using the assays described below. Human Embryonic Kidney (HEK) cells were transfected with an hSCN9A construct using lipofectamine reagent (Invitrogen), using standard techniques. Cells stably expressing the hSCN9A constructs were identified by their resistance to G-418 (400 μg/ml). Clones were screened for expression using the whole-cell voltage-clamp technique. HEK cells stably transfected with hSCN9A were maintained in DMEM medium supplemented with 10% heat-inactivated fetal bovine serum and 400 μg/ml G-418 in an incubator at 37° C. with a humidified atmosphere of 10% CO2. For HTS, cells were harvested from flasks by trypsinization and replated in an appropriate multi-well plate (typically 96 or 384 wells/plate) such that confluence would be achieved within 24 hours of plating. For electrophysiological studies, cells were removed from the culture flask by brief trypsinization and re-plated at low density onto glass cover slips. Cells were typically used for electrophysiological experiments within 24 to 72 hours after plating. Electrophysiological assays were also conducted using the lonworks Quattro automated electrophysiological platform (Molecular Devices Corp). Intracellular and extracellular solutions were as described above with the following changes, 100 μg/ml amphotericin was added to the intracellular solution to perforate the membrane and allow electrical access to the cells. hSCN9A cells were grown and harvested as for PatchXpress and cells were resuspended in extracellular solution at a concentration of 3−4×10^6 cells/ml. The onboard liquid handling facility of the lonworks Quattro was used for dispensing cells and application of test compounds. A voltage protocol was then applied that comprised of a voltage step to fully inactivate the sodium channels, followed by a brief hyperpolarized recovery period to allow partial recovery from inactivation for unblocked sodium channels, followed by a test depolarized voltage step to assess magnitude of inhibition by test compound. Compound effect was determined based on current amplitude difference between the pre-compound addition and post-compound addition scans. Compounds of the Examples were tested in the assays described above and found to have the Nav1.7 EIC50 (μM) values specified in the table below. All data are derived from the PatchXpress assay unless explicitly stated otherwise.

| IC50 [µM] | Structure (SMILES) |
| --- | --- |
| 13.7 | CS(=O)(=O)NC(=O)c1ccc(Oc2cc(C(F)(F)F)ccc2Cl)cc1 [Example 207, 4-[2-chloro-5-(trifluoromethyl)phenoxy]-N-(methylsulfonyl)benzamide] |
| 18.7 | CS(=O)(=O)NC(=O)c1ccc(Oc2ccc(F)c(C(F)(F)F)c2)cc1 [Example 208, 4-[4-fluoro-3-(trifluoromethyl)phenoxy]-N-(methylsulfonyl)benzamide] |
